{
  "source": "patent EP3050567B1",
  "about": "“COMPOUND FOR ACTIVATING AMPK AND USES THEREOF” (Energenesis Biomedical Co., Ltd., priority 2013, dated 2015)",
  "key": {"[1]": {"tested_on": "TNFα", "assay": "LPS-induced inflammatory response in THP1 macrophages, secreted TNFα (ELISA)", "format": "cell-based, human", "conditions": "50 ng LPS 6 hr", "description": "Effects of adenine on inflammatory response were evaluated in human THP1 macrophage by examining protein level of intracellular COX-2 and secreted TNFα, IL-1β and IL-6. Differentiation of THP1 monocytes into macrophages was induced by 50 nM PMA for 24 hr. THP1 macrophages were further stimulated by 50 ng LPS for 6 hr in the presence of 10-600 µM of adenine or vehicle followed by cell lysis and western blot analysis. Equal amounts of protein were separated by SDS-PAGE and then electroblotted on to PVDF membranes. Membranes were blocked with 3% BSA in PBS for 60 min and incubated with an anti-COX-2 antibody (1:1,000, Cell signaling), an anti-actin antibody (1:5,000, Cell signaling) at 4° C for 16 h followed by the corresponding secondary antibody for 1 h at room temperature (RT). Immunoreactive bands were detected by enhanced chemiluminescence and recorded using Kodak film. The detected signals were scanned and then quantified using TotalLab Quant software (TotalLab). The secreted TNFα, IL-1β and IL-6 were analyzed by enzyme-linked immunosorbent assays."}, "[2]": {"tested_on": "AMPK", "assay": "AMPK activation assay (phospho-AMPK Thr172 western blot) in C2C12 cells", "format": "cell-based, Mouse", "conditions": "30 min", "description": "(§1) Effects of adenine on AMPK activation were evaluated based on the phosphorylation of AMPK protein upon adenine treatment. Mouse muscle cell C2C12, mouse fibroblast 3T3, human liver carcinoma cell Hep G2, human breast adenocarcinoma cell line MCF7 and human colon adenocarcinoma grade II cell line HT29, human umbilical vein endothelial cell HUVEC, Human acute monocytic leukemiacell THP1, human macrophage cell U937, murine microglia cell BV-2, and mouse neuroblastoma cell Neuro2A and dermal papilla cell were cultured in high-glucose Dulbecco's modified Eagle's medium (DMEM) containing 10% fetal bovine serum (FBS), 4 mM L-glutamine, 2 mM sodium pyruvate and 1% penicillin/streptomycin (Invitrogen GibcoBRL, Carlsbad, Calif., USA) at 37°C, under 5% CO2. Cells were plated at 3 × 10^5 per well in 6-well plates. Twenty-four hours after plating, adenine was added to the culture media as indicated. After 30 min cells were lysed and subject to western blot analysis. Equal amount of protein from each sample was separated by SDS-PAGE and then electroblotted on to PVDF membranes. Membranes were blocked with 3% BSA in PBS for 60 min and incubated with an anti-phospho-AMPK (Thr172) antibody (1:2,000, Cell signaling) or an anti-AMPK antibody (1:2,000, Cell signaling) at 4°C for 16 h followed by the corresponding secondary antibody for 1 h at room temperature (RT). Immunoreactive bands were detected by enhanced chemiluminescence and recorded using Kodak film. The detected signals were scanned and then quantified using TotalLab Quant software (TotalLab)."}, "[3]": {"tested_on": "AMPK", "assay": "AMPK activation assay (phospho-AMPK Thr172 western blot) in BV-2 cells", "format": "cell-based, murine", "conditions": "30 min", "description": "as §1"}, "[4]": {"tested_on": "LC3", "assay": "Autophagy assay (LC3-II/LC3-I western blot) in Neuro2A cells", "format": "cell-based, mouse", "conditions": "24 h", "description": "Effects of adenine on Amyloid β peptide were analyzed in mouse neuroblastoma cell Neuro2A. Neuro2A cells were cultured in high-glucose Dulbecco's modified Eagle's medium (DMEM) containing 10% fetal bovine serum (FBS), 4 mM L-glutamine, 2 mM sodium pyruvate and 1% penicillin/streptomycin (Invitrogen GibcoBRL, Carlsbad, Calif., USA) at 37°C under 5% CO2. Cells were plated at 3 × 10^5 per well (6-well plate). 24 h after plating, cells were transfected with human APP695 and treated with indicated concentration of adenine for 24 h followed by cell lysis and western blot analysis. Equal amounts of protein were separated by SDS-PAGE and then electroblotted on to PVDF membranes. Membranes were blocked with 3% BSA in PBS for 60 min and incubated with an anti-Aβ antibody (1:1,000, abcam), an anti-LC3 antibody (1:1,000, Cell signaling), and an anti-actin antibody (1:5,000, Cell signaling) at 4°C for 16 h followed by the corresponding secondary antibody for 1 h at room temperature (RT). Immunoreactive bands were detected by enhanced chemiluminescence and recorded using Kodakfilm. The detected signals were scanned and then quantified by using TotalLab Quant software (TotalLab)."}, "[5]": {"tested_on": "Human umbilical vein endothelial cells (HUVECs)", "assay": "ROS production (H2DCF-DA) under high glucose", "format": "cell-based", "conditions": "30 mM glucose, 24 h", "description": "Human umbilical vein endothelial cells (HUVECs) were cultured in Dulbecco's modified Eagle's medium (DMEM) containing 10% fetal bovine serum (FBS), 4 mM L-glutamine, 2 mM sodium pyruvate and 1% penicillin/streptomycin (Invitrogen GibcoBRL, Carlsbad, Calif., USA) at 37°C under 5% CO2. Cells were plated at 2×10^4 per well in black 96-well. Twenty-four hours after plating, medium was changed to fresh DMEM containing either 5.6 or 30 mM glucose and treated with indicated concentration of adenine. Twenty-four hours after treatment, the intracellular ROS was detected using H2DCF-DA. Cells were washed once with PBS and then incubated with 100 µM DCF at 37°C for 30 min. Then the fluorescence of DCF was measured using a Fluorescence Microplate Reader System at 485-nm excitation and 530-nm emission wavelengths."}},
  "data": [
    {"smiles": "Nc1ncnc2nc[nH]c12", "note": "[Adenine, adenine]", "values": [
      {"measurement": "TNFα (% to control)", "setting": "[1]; adenine 10 microM", "result": "85±9.1 % to control"},
      {"measurement": "TNFα (% to control)", "setting": "[1]; adenine 100 microM", "result": "41±2.6 % to control"},
      {"measurement": "TNFα (% to control)", "setting": "[1]; adenine 600 microM", "result": "23±1.8 % to control"},
      {"measurement": "AMPK activation (fold to control)", "setting": "[2]; adenine 1 microM", "result": "1.2 fold to control"},
      {"measurement": "AMPK activation (fold to control)", "setting": "[2]; adenine 10 microM", "result": "1.7 fold to control"},
      {"measurement": "AMPK activation (fold to control)", "setting": "[2]; adenine 100 microM", "result": "3.2 fold to control"},
      {"measurement": "AMPK activation (fold to control)", "setting": "[2]; adenine 200 microM", "result": "3.9 fold to control"},
      {"measurement": "AMPK activation (fold to control)", "setting": "[2]; adenine 600 microM", "result": "4.1 fold to control"},
      {"measurement": "AMPK activation (fold to control)", "setting": "[3]; adenine 1 microM", "result": "1.2 fold to control"},
      {"measurement": "AMPK activation (fold to control)", "setting": "[3]; adenine 10 microM", "result": "1.7 fold to control"},
      {"measurement": "AMPK activation (fold to control)", "setting": "[3]; adenine 40 microM", "result": "2.6 fold to control"},
      {"measurement": "AMPK activation (fold to control)", "setting": "[3]; adenine 160 microM", "result": "3.2 fold to control"},
      {"measurement": "LC3-II/LC3-I ratio (relative to control)", "setting": "[4]; adenine 10 microM", "result": "1.2 ± 0.1 relative to control"},
      {"measurement": "LC3-II/LC3-I ratio (relative to control)", "setting": "[4]; adenine 20 microM", "result": "1.8 ± 0.3 relative to control"},
      {"measurement": "LC3-II/LC3-I ratio (relative to control)", "setting": "[4]; adenine 30 microM", "result": "2.8 ± 0.2 relative to control"},
      {"measurement": "LC3-II/LC3-I ratio (relative to control)", "setting": "[4]; adenine 40 microM", "result": "2.9 ± 0.2 relative to control"},
      {"measurement": "LC3-II/LC3-I ratio (relative to control)", "setting": "[4]; adenine 50 microM", "result": "3.2 ± 0.3 relative to control"},
      {"measurement": "ROS production (% of 5.6 mM glucose)", "setting": "[5]; adenine 10 microM", "result": "211 ± 4.3 % of 5.6 mM glucose"},
      {"measurement": "ROS production (% of 5.6 mM glucose)", "setting": "[5]; adenine 100 microM", "result": "116 ± 1.7 % of 5.6 mM glucose"},
      {"measurement": "ROS production (% of 5.6 mM glucose)", "setting": "[5]; adenine 200 microM", "result": "38.1 ± 2.9 % of 5.6 mM glucose"},
      {"measurement": "ROS production (% of 5.6 mM glucose)", "setting": "[5]; adenine 600 microM", "result": "21.7 ± 3.1 % of 5.6 mM glucose"},
      {"measurement": "ROS production (% of 5.6 mM glucose)", "setting": "[5]; adenine 1200 microM", "result": "22.4 ± 2.5 % of 5.6 mM glucose"}
    ]}
  ]
}
